Data from paper PMC13183420, “Sustained Action of Imapextide, A Glucagon-Like Peptide-1 Receptor Antagonist, in Healthy Volunteers” (The Journal of Clinical Endocrinology and Metabolism, 2025).

How the values were obtained:
healthy volunteers = experiment: Safety and tolerability, drug-drug interaction part; type: in vivo, human; settings: n = 14; for TRAE, Rosuvastatin-related: rosuvastatin 10 mg; for TRAE, Acetaminophen-related: acetaminophen 1000 mg
Protocol: This phase 1, randomized, double-blind, placebo-controlled study (NCT06036784) enrolled healthy adults (aged 18-65 years) with a body mass index of 18 to 30 kg/m^2, stable body weight for 3 months or longer, and without diabetes. Potential participants were ineligible if they had type 1 or type 2 diabetes or prediabetes (based on medical history, relevant concomitant medications [including oral or injectable antidiabetic medications], fasting plasma glucose concentrations ≥100 mg/dL or glycated hemoglobin concentrations ≥5.7% [American Diabetes Association thresholds for diabetes and prediabetes ([18])]).
(§1) The DDI portion of the study included 1 cohort of 14 HVs and consisted of 2 study periods. […] Blood samples were also collected to measure clearance of the endogenous biomarker for hepatic OATP inhibition, coproporphyrin-I (CP-I), to assess potential inhibition of OATP1B1/3 by imapextide. […] The primary objective of the DDI portion was to evaluate the PK of rosuvastatin and acetaminophen in the presence and absence of imapextide.
The primary objective of the SAD and MAD portions of the study was to evaluate the safety and tolerability of imapextide; safety was also evaluated in the DDI portion. Safety assessments included incidence and severity of treatment-emergent adverse events (TEAEs), changes in physical examination findings, clinical laboratory abnormalities (serum chemistry, hematology, urinalysis, and coagulation; abnormalities were defined as deviation from the laboratory normal range), and potential effect on vital sign measures. All blood samples for safety analyses were collected after an overnight fast (≥8 hours). If present, data on ISRs were collected using a dedicated form and rated on severity according to the US Food and Drug Administration toxicity scale for vaccines (for details on severity grading, see Supplementary Table S1) ([20], [21]). All ISRs were evaluated, regardless of whether they were reported as TEAEs by the investigator. In the 30-mg-R cohort, participants with ISRs grade 2 or worse underwent a dermatology consultation, including a potential skin biopsy at the discretion of the dermatologist.

OATP1B1/OATP1B3 = experiment: Drug-drug interaction: rosuvastatin PK in presence or absence of imapextide; type: in vivo, human; settings: plasma, n = 14, statistic in brackets not given
From the text: as §1
Imapextide was also examined as a perpetrator of OATP1B1/3, which would affect the hepatic clearance of rosuvastatin and CP-I. PK assessments for rosuvastatin included Cmax, tmax, AUC from 0 to 72 hours (AUC0-72), and AUCinf. PK assessments for CP-I included Cmax, tmax, AUC0-72, and AUC from 0 to 108 hours (AUC0-108).

[1] = DDI Period 2 (RBX + APAP + Imapextide 45 mg)
[2] = Period 1 (RBX 10 mg + APAP 1000 mg), no imapextide
[3] = Period 2 (RBX 10 mg + APAP 1000 mg + imapextide 45 mg given 2 days before)

AUC0-72 (OATP1B1/OATP1B3; [2])	AUC0-inf (OATP1B1/OATP1B3; [2])	Cmax (OATP1B1/OATP1B3; [2])	tmax (OATP1B1/OATP1B3; [2])	AUC0-72 (OATP1B1/OATP1B3; [3])	AUC0-inf (OATP1B1/OATP1B3; [3])	Cmax (OATP1B1/OATP1B3; [3])	tmax (OATP1B1/OATP1B3; [3])	SMILES	TRAE, Rosuvastatin-related (healthy volunteers; DDI Period 1 (RBX + APAP))	TRAE, Rosuvastatin-related (healthy volunteers; [1])	TRAE, Acetaminophen-related (healthy volunteers; DDI Period 1 (RBX + APAP))	TRAE, Acetaminophen-related (healthy volunteers; [1])
27,660 (56.1) h*pg/mL	36,090 (50.3) h*pg/mL	2307 (85.1) pg/mL	2.80 (84.7) h	31,730 (48.3) h*pg/mL	32,490 (49.4) h*pg/mL	2962 (61.9) pg/mL	2.72 (38.1) h	CC(C)c1nc(N(C)S(C)(=O)=O)nc(-c2ccc(F)cc2)c1/C=C/[C@@H](O)C[C@@H](O)CC(=O)O [Rosuvastatin, rosuvastatin]	0 n (%)	0 n (%)	–	–
–	–	–	–	–	–	–	–	CC(=O)Nc1ccc(O)cc1 [Acetaminophen, acetaminophen]	–	–	0 n (%)	0 n (%)
